Peptide text beside a SMILES is read from it. * marks the point of attachment. Cbz = O=C(OCc1ccccc1)*
Experiments:
A375 cells = assay: Cell viability of control or METTL3 knockdown A375 cells after treatment with DNA damage repair modulators; format: cell-based, human; conditions: METTL3 knockdown versus control
Description: FIGS. 24A-24E: The synergistic damage effects of METTL3 knockdown with DNA damage repair modulators or inhibitors of specific DNA repair pathways in cancer cells. […] Error bars indicate mean±s.e.m. P values were determined by two-tailed t-test. (E) Analysis of dsDNA break in the control or METTL3 knockdown colon cancer cells. TUNEL assay was performed.

[1] = system: METTL3 / m^6A methyltransferase complex in A375 cells; assay: Immunoblot of METTL3 / m^6A methyltransferase complex protein in A375 cell lysates; format: cell-based, human
Description: (§1) FIGS. 6A-6H: Phosphorylation of the m^6A Methyltransferase Complex May Affect Tumorigenesis. (A) Lysates of A375 stable transfectants harvested at different time points after treatment with cycloheximide (CHX) 10 μg/ml were analyzed by immunoblot. (B) LC-MS/MS quantification of the m^6A/A ratio in mRNA of A375 stable transfectants. (C) After 8 h treatment with 10 μM PD0325901 or 0.1 μM tramentib, cell lysates from A375 cells were analyzed by immunoblot. (D) LC-MS/MS quantification of the m^6A/A ratio in mRNA of A375 cells treated with 10 μM PD0325901 or 0.1 μM tramentib for 48 h. (E) After 8hr treatment with 10 μM EOAI3402143 (EOAI) or 30 μM vialinin A , cell lysates from A375 cells were analyzed by immunoblot. (F) A375 stable transfectants as indicated were treated with 3 μM EOAI3402143 (EOAI) or 10 μM vialinin A before measuring cell viability by SRB assay. Data are presented as relative to the R-WT cells without drug treatment (n=3 per group, data represent mean±SEM). (G) Immunofluorescence analysis of METTL3 (green) in SKBR3 cells treated with 1 μM tucatinib and 1 μM lapatinib for 8 hr. DAPI (blue) was used to mark the nucleus. (H) LC-MS/MS quantification of the m^6A/A ratio in mRNA of SKBR3 and BT474 cells treated with 1 μM tucatinib and 1 μM lapatinib for 48 h. (See also FIG. 14.)
(§2) FIGS. 11A-11G: USP5 is Required for ERK-Mediated METTL3 Stabilization. (A) A375 cells transfected with HA-ubiquitin (ub) were treated with 10 μM MG-132 and MEK inhibitor PD0325901 for 8 h. The ubiquitination of METTL3 was detected by IP with anti-METTL3 and immunoblot with anti-HA. (B) After 8 h treatment with 10 μM PD0325901 with or without 10 μM MG-132, cell lysates from A375 cells were analyzed by immunoblot. (C) A375 cells were treated with various concentrations of PD0325901 for 1 h. Cell lysates were subjected to IP with METTL3 antibody followed by immunoblot. (D) 293T cells transfected as indicated were subjected to IP/immunoblot analysis. (E) Immunofluorescence analysis of myc-METTL3 (green) in mESC stable transfectants. DAPI (blue) was used to mark the nucleus. (F) Lysates of 293T cells transfected as indicated were subjected to IP with anti-Flag antibody followed by immunoblot. (G) Immunofluorescence analysis of 293T cells co-transfected with myc-METTL3 (green), Flag-USP5 (red) with or without constitutively active B-RAF.
Immunoprecipitation, immunoblotting, and in vitro kinase assay. Immunoprecipitation (IP) and immunoblotting (IB) were performed as previously described (Sun et al., 2016). In brief, protein samples were isolated from respective cells by lysis in RIPA buffer (1% Triton X-100, 150 mM NaCl, 20 mM Na2PO4, pH 7.4) containing Halt Protease and Phosphatase Inhibitor Cocktail (Thermo Scientific). Subsequently, a BCA assay (Thermo Scientific) was used to determine the protein concentrations. For IP, indicated antibody and protein A/G magnetic beads (Thermo Scientific) were incubated with lysate at 4° C. overnight followed by washing and elution with sample buffer. Equal amounts of protein were separated by SDS-PAGE followed by wet transfer to PVDF membranes. Blots were blocked with 5% non-fat milk or BSA and incubated with respective primary antibody at 4° C. overnight. Primary antibodies were detected by HRP-linked secondary antibodies (Cell Signaling) together with SuperSignal West Pico Plus chemiluminescent substrate (Thermo Scientific) and imaged in a FluorChem R system (ProteinSimple).

p-METTL3 (S43) = p-METTL3 (S43) in A375 cells, IP with METTL3 antibody followed by immunoblot; format: cell-based, human; conditions: 1 h, 1 μM dabrafenib, 1 μM PLX-4720, 10 μM PD0325901, 0.1 μM trametinib
From the text: FIGS. 10A-10G: ERK Interacts and Phosphorylates METTL3 and WTAP. (A-C) Mass spectrometry detected S43, S50 and S525 phosphorylation in METTL3 in 293T cells co-transfected with B-RAF V600E. (D) Characterization of anti-p-METTL3 (S43) antibodies of 293T cells transfected as indicated with MEK S218D/S222D, HER2 V659E, B-RAF V600E and WT or non-phosphorylatable alanine mutant (3A) METTL3. (E) The METTL3 S43 phosphorylation was identified by in vitro kinase assays, in which purified METTL3-METTL14 were incubated with activated ERK2. (F) A375 cells were treated with 1 μM dabrafenib, 1 μM PLX-4720, 10 μM PD0325901, 0.1 μM tramentib for 1 h. Cell lysates were subjected to IP with METTL3 antibody followed by immunoblot. (G) Phos-tag SDS-PAGE showing the phosphorylation status of WT or non-phosphorylatable alanine mutants of mice WTAP in 293T cells co-transfected with B-RAF. 2A, T298A/S341A.
To investigate METTL3 phosphorylation by ERK inside cells, a polyclonal antibody was generated that targets S43-phosphorylated METTL3. This antibody recognizes S43-phosphorylated METTL3 but not a mutant form of METTL3, METTL3 3A, with all three phosphorylation serine sites replaced with alanine (FIG. 10D). This P-S43 antibody was then used as a tool to monitor METTL3 phosphorylation. […] Furthermore, the p-METTL3 (S43) in A375 cells, a human melanoma cell line with constitutively active ERK due to a B-RAF V600E mutation, was abrogated by treatments with B-RAF inhibitors (dabrafenib and PLX4720) or MEK inhibitors (PD0325901 and trametinib) (FIG. 10F), supporting that S43 phosphorylation on METTL3 is installed through the ERK pathway.
Immunoprecipitation, immunoblotting, and in vitro kinase assay. Immunoprecipitation (IP) and immunoblotting (IB) were performed as previously described (Sun et al., 2016). […] Primary antibodies were detected by HRP-linked secondary antibodies (Cell Signaling) together with SuperSignal West Pico Plus chemiluminescent substrate (Thermo Scientific) and imaged in a FluorChem R system (ProteinSimple).

METTL3 in SKBR3 cells = assay: Immunofluorescence analysis of METTL3 in SKBR3 cells; format: cell-based; conditions: 1 μM, 8 hr
Description: as §1, with “(See also FIG. 14.)” left out
Confocal Microscopy. […] Confocal fluorescence images were captured using Olympus FV1000 confocal spectral microscope.

[2] = system: mRNA m^6A in SKBR3 and BT474 cells; assay: LC-MS/MS quantification of the m^6A/A ratio in mRNA of SKBR3 and BT474 cells; format: cell-based; conditions: 1 μM, 48 h
Description: as §1, with “(F) A375 stable transfectants as indicated were treated with 3 μM EOAI3402143 (EOAI) or 10 μM vialinin A before measuring cell viability by SRB assay. Data are presented as relative to the R-WT cells without drug treatment (n=3 per group, data represent mean±SEM). (G) Immunofluorescence analysis of METTL3 (green) in SKBR3 cells treated with 1 μM tucatinib and 1 μM lapatinib for 8 hr. DAPI (blue) was used to mark the nucleus.” left out, “(See also FIG. 14.)” left out
LC-MS/MS quantification of m^6A in poly(A) RNA. mRNA was extracted from the total RNA using 2 rounds of the Dynabeads mRNA purification kit. […] The nucleosides were quantified by using the nucleoside-to-base ion mass transitions of 282 to 150 (m^6A) and 268 to 136 (A). Quantification was carried out by comparison with a standard curve obtained from pure nucleoside. The ratio of m^6A to A was calculated based on the calibrated concentrations (Liu et al., 2018).

ubiquitination of METTL3 = assay: Ubiquitination of METTL3 in A375 cells transfected with HA-ubiquitin (IP anti-METTL3, immunoblot anti-HA); format: cell-based, human; conditions: 10 μM MG-132 and 10 μM EOAI3402143 or 30 μM vialinin A for 8 h
Description: as §2
FIGS. 14A-14I: Phosphorylation of the m^6A Methyltransferase Complex May Affect Tumorigenesis. […] (B) LC-MS/MS quantification of the m^6A/A ratio in mRNA of melanoma cell lines. (C) After 8 h treatment with 10 μM PD0325901 or 0.1 μM tramentib, cell lysates from HCT-116 cells were analyzed by immunoblot. […] The ubiquitination of METTL3 was detected by IP with anti-METTL3 and immunoblot with anti-HA. (F) After 8 hr treatment with 10 μM EOAI3402143 (EOAI) or 30 μM vialinin A, cell lysates from HCT-116 cells were analyzed by immunoblot. […] (I) LC-MS/MS quantification of the m^6A/A ratio in mRNA of breast cancer cell lines.
Immunoprecipitation, immunoblotting, and in vitro kinase assay. […] Primary antibodies were detected by HRP-linked secondary antibodies (Cell Signaling) together with SuperSignal West Pico Plus chemiluminescent substrate (Thermo Scientific) and imaged in a FluorChem R system (ProteinSimple).

O=c1[nH]cc(F)c(=O)[nH]1 [5-FU]
effect on cell viability of DNA damage agent with METTL3 knockdown (A375 cells): synergistic effects

C[C@@H]1COCCN1c1cc(C2([S@](C)(=N)=O)CC2)nc(-c2cc[nH]c3nccc2-3)n1 [AZD6738, ceralasertib]
cell death of METTL3 knockdown cells versus controls after DNA damage repair inhibitor (A375 cells): more severe cell death

CC(C)C[C@@H](C=O)NC(=O)[C@H](CC(C)C)NC(=O)[C@H](CC(C)C)NC(=O)OCc1ccccc1 [MG132] (Cbz-Leu-Leu-Leu-aldehyde)
PD0325901-induced degradation of METTL3 on addition of proteasome inhibitor ([1]; A375 cells, 10 μM PD0325901 with 10 μM MG-132, 8 h): restored

CCCS(=O)(=O)Nc1ccc(F)c(C(=O)c2c[nH]c3ncc(Cl)cc23)c1F [PLX4720]
p-METTL3 (S43) (p-METTL3 (S43)): abrogated

CC(C)(C)c1nc(-c2cccc(NS(=O)(=O)c3c(F)cccc3F)c2F)c(-c2ccnc(N)n2)s1 [dabrafenib]
p-METTL3 (S43) (p-METTL3 (S43)): abrogated

CS(=O)(=O)CCNCc1ccc(-c2ccc3ncnc(Nc4ccc(OCc5cccc(F)c5)c(Cl)c4)c3c2)o1 [lapatinib]
METTL3 protein level (METTL3 in SKBR3 cells): reduce
cellular mRNA m^6A methylation (m^6A/A ratio) [2]: reduce

Cc1cc(Nc2ncnc3ccc(NC4=NC(C)(C)CO4)cc23)ccc1Oc1ccn2ncnc2c1 [tucatinib]
METTL3 protein level (METTL3 in SKBR3 cells): reduce
cellular mRNA m^6A methylation (m^6A/A ratio) [2]: reduce

C[C@]1(c2nc3c(C(N)=O)cccc3[nH]2)CCCN1 [veliparib]
cell death of METTL3 knockdown cells versus controls after DNA damage repair inhibitor (A375 cells): more severe cell death

O=C(Cc1ccccc1)Oc1c(OC(=O)Cc2ccccc2)c(-c2ccc(O)cc2)c(O)c(O)c1-c1ccc(O)cc1 [vialinin]
ubiquitination of METTL3 (ubiquitination of METTL3): increased
METTL3 protein level ([1]; A375 cells (also HCT-116, FIG. 14F), 8 hr, 10 μM EOAI3402143 or 30 μM vialinin A): decreased

Bleomycin
effect on cell viability of DNA damage agent with METTL3 knockdown (A375 cells): synergistic effects

From US20230123585A1, “COMPOSITIONS AND METHODS FOR TREATING OR PREVENTING CANCER USING DEUBIQUITINASE INHIBITORS” (The University of Chicago, priority 2020, published 2023)
